Reference: patent publication US11357814B2, “Application of Sarcococca vagans, Chinese medicinal ointment for treating skin disease, preparation method and application thereof” (priority 2017, dated 2022)

Experiments:
[1] = tested on: xylene-induced mouse ear edema; experiment: Xylene-induced mouse ear edema (Effect Example 6); type: in vivo, Kunming mice; conditions: dexamethasone 9.9 ug/kg fed
Description: Influences of Sarcococca […] to xylene-induced mouse ear edema. Roots of Sarcococca […] dried in the sun, and ground to powder for subsequent use. 1. […] Test reagent: Sarcococca […] powder, dexamethasone acetate tablets (Zhejiang Xianju Pharmaceutical Co., Ltd., batch No. 120347), and glacial acetic acid and xylene were both analytically pure. 3. […] After the Sarcococca […] powder was sieved by 120 meshes, a suitable amount of the Sarcococca […] powder was taken and dissolved in a 0.5% sodium carboxymethylcellulose solution, to prepare high-dosage (0.30 g/ml), medium-dosage (0.15 g/ml), and low-dosage (0.075 g/ml) Sarcococca […] powder suspension. The dexamethasone acetate tablets were ground in the 0.5% sodium carboxymethylcellulose solution, to prepare 19.8 ug/ml suspension. […] For each group, the mice were fed twice each day for first two days, once on the third day, and after 30 min, 0.05 ml of xylene was applied to both front and back faces of right ear of each mouse in each group, while left ear was not coated with the medicine as control. 40 min after the coating, the mice were killed by cervical dislocation, the left and right ears were cut off, and ear slices at the same parts of the two ears were taken with a puncher and weighed. The difference between weights of the left and right ears is swelling degree. Each group was recorded, and t test was carried out among the groups. […]

[2] = tested on: capillary permeability of mouse abdominal cavities; experiment: Inhibition of capillary permeability of mouse abdominal cavities, Evans blue / glacial acetic acid (Effect Example 7); type: in vivo, Kunming mice; conditions: dexamethasone 9.9 ug/kg fed; 580 nm
Description: Test for Sarcococca […] effect of inhibiting capillary permeability. Roots of Sarcococca […] dried in the sun, and ground to powder for subsequent use. 1. […] 2. Test reagent: Sarcococca […] powder, dexamethasone acetate tablets (Zhejiang Xianju Pharmaceutical Co., Ltd., batch No. 120347), and glacial acetic acid and xylene were both analytically pure. 3. […] After the Sarcococca […] powder was sieved by 120 meshes, a suitable amount of the Sarcococca […] powder was taken and dissolved in a 0.5% sodium carboxymethylcellulose solution, to prepare high-dosage (0.30 g/ml), medium-dosage (0.15 g/ml), and low-dosage (0.075 g/ml) Sarcococca […] powder suspension. The dexamethasone acetate tablets were ground in the 0.5% sodium carboxymethylcellulose solution, to prepare 19.8 ug/ml suspension. […] For each group, the mice were fed twice each day for the first two days, fed once on the third day, after 30 min, the animals in each group were injected with Evans blue saline at 0.1 ml/10 g through tail vein, then were intraperitoneally injected with 0.9% glacial acetic acid, 40 min after the injection, each animal was killed by cervical dislocation, whose abdominal cavity was washed with saline, and a washing liquid was collected, to be adjusted to a volume of 7 ml, centrifuged at 3000 r/min for 5 min, and measured in absorbance at a 580 nm wavelength.

allergic dermatitis = experiment: Clinical treatment of allergic skin diseases with ointment (Effect Example 2); type: in vivo, human
Description: For the purpose of explaining application of the Chinese medicinal ointment provided in the present disclosure for treating allergic skin diseases, for example, treating dermatitis and eczema.
1. Subjects: 300 patients were collected clinically, with […] and 131 females, between 19 years old and 68 years old, all of whom suffered from allergic dermatitis.
(§1) 2. Test grouping: the patients were randomly grouped into 3 groups, 100 patients in each group. The Chinese medicinal ointment prepared in Examples 1-9 was used for the test group, the Chinese medicinal ointment prepared in the comparative example was used for Control Group 1, and another commercially available ointment for treating dermatitis, e.g. Fluocinolone acetonide, was used for Control Group 2. For each patient, the corresponding ointment was applied on affected parts twice a day, for 1 month continuously.
(§2) 3. Criterion of therapeutic effect:
Cured: clinical symptoms completely disappear;
Total effective rate=(cured cases+effective cases)/total cases

[3] = tested on: tinea capitis, tinea corporis, tinea cruris or tinea of feet and hands; experiment: Clinical treatment of fungal skin diseases with ointment (Effect Example 3); type: in vivo, human
Description: For the purpose of explaining application of the Chinese medicinal ointment provided in the present disclosure for treating fungal skin diseases, for example, treating tinea capitis, tinea corporis, tinea cruris and tinea of feet and hands.
1. Subjects: 150 patients were collected clinically, with 101 males and 49 females, between 16 years old and 65 years old, all of whom suffered from tinea capitis, tinea corporis, tinea cruris or tinea of feet and hands.
as §1, with “50” for “100”, “tinea corporis,” for “dermatitis,”, “Ketoconazole,” for “Fluocinolone acetonide,”, “2 months” for “1 month”
as §2
Cured: Fungi microscopic examination is negative, and tinea and pruritus completely disappear;
Effective: Fungi microscopic examination is negative, tinea substantially disappears, and pruritus is evidently alleviated;
Ineffective: Fungi microscopic examination is positive, and tinea and pruritus are not relieved. Total effective rate=(cured cases+effective cases)/total cases

[4] = cases of 50 patients per group, twice a day for 2 months

## CC(=O)OCC(=O)[C@@]1(O)[C@H](C)C[C@H]2[C@@H]3CCC4=CC(=O)C=C[C@]4(C)[C@@]3(F)[C@@H](O)C[C@@]21C [Dexamethasone, dexamethasone acetate]
[1]; 40 min after xylene
  Swelling Degree: 0.0101 ± 0.0034 g
[1]; vs normal group
  Swelling Inhibition Rate: 20.0%
[2]
  Absorbance (A): 0.569 ± 0.238 ^

## CC1(C)O[C@@H]2C[C@H]3[C@@H]4C[C@H](F)C5=CC(=O)C=C[C@]5(C)[C@@]4(F)[C@@H](O)C[C@]3(C)[C@]2(C(=O)CO)O1 [Fluocinolone acetonide]
Allergic dermatitis; (cured cases+effective cases)/total cases, twice a day for 1 month
  Total Effective Rate: 77%
Allergic dermatitis; cases of 100 patients per group, applied twice a day for 1 month, clinical symptoms completely disappear
  Cured: 40
Allergic dermatitis; cases of 100 patients per group, twice a day for 1 month
  Ineffective: 23
Allergic dermatitis; cases of 100 patients per group, twice a day for 1 month, symptoms evidently improved
  Effective: 37

## CC(=O)N1CCN(c2ccc(OCC3COC(Cn4ccnc4)(c4ccc(Cl)cc4Cl)O3)cc2)CC1 (centres unmarked) [Ketoconazole]
[3]; (cured cases+effective cases)/total cases, twice a day for 2 months
  Total Effective Rate: 74%
[3]; cases of 50 patients per group, applied twice a day for 2 months, fungi microscopic examination negative, tinea and pruritus completely disappear
  Cured: 16
[3]; [4]
  Effective: 21
  Ineffective: 13
